For test [1], the target named is T1, E. coli ATP synthase (purified F1 or membrane bound F1Fo) (Escherichia coli, UniProt P0ABA6+P0ABB0+P0ABB4). Kind of test: biochemical. It is filed as biochemical.
The test system of test [2] is wild-type E. coli strain pBWU13.4/DK8. It is filed as cell-based, Escherichia coli.
In test [3] the target is T1, E. coli ATP synthase (purified F1 or membrane bound F1Fo). The conditions noted are these: maximal inhibition; cited from earlier work.
[4] abbreviates: left over ATPase activity at maximal inhibition.
Where [5] appears, read: purified F1 or membranes, preincubated 60 min at 23°C, varied concentrations.
The mark [6] stands for this setting: OD595 after ~20 hours growth at 37 °C, control 100, null 45.
Where [7] appears, read: left over ATPase activity at maximal inhibition, purified F1 or membranes.

The text below walks through data of PMC4303583 (International journal of biological macromolecules, 2012).

Where two headings read alike, the source gives them in different places.

T1 sequence (P0ABA4 whole entry): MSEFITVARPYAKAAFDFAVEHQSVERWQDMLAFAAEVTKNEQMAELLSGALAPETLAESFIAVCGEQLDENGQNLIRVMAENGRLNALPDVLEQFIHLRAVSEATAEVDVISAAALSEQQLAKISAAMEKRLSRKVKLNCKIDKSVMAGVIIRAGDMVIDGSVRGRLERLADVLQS
T1 sequence (P0ABB4 2-460): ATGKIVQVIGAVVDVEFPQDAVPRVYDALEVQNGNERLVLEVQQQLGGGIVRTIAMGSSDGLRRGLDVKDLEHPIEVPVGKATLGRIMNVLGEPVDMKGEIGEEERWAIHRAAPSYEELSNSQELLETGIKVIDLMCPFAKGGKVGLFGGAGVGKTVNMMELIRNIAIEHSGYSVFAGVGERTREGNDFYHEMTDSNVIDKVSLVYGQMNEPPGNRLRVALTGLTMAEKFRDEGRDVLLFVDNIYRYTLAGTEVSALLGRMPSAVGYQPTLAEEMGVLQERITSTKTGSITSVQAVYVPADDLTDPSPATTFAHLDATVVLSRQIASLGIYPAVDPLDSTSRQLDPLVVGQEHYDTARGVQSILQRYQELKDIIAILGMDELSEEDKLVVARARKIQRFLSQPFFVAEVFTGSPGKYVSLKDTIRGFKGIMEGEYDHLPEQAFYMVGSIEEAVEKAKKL
T1 sequence (P0ABA6 whole entry): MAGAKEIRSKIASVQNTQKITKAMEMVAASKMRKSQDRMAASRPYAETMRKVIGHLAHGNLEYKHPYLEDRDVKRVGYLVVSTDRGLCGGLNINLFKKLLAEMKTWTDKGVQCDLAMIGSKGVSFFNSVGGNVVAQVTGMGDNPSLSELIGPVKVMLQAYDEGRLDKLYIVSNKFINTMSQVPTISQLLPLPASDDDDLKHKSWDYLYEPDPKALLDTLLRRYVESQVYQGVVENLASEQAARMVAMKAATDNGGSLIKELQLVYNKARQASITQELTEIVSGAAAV
T1 sequence (P0A6E6 2-139, further chain): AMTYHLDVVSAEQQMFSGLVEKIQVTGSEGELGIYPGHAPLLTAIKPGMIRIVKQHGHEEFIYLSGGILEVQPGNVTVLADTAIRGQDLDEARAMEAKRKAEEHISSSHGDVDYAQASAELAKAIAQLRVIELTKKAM
T1 sequence (P0ABB0 whole entry): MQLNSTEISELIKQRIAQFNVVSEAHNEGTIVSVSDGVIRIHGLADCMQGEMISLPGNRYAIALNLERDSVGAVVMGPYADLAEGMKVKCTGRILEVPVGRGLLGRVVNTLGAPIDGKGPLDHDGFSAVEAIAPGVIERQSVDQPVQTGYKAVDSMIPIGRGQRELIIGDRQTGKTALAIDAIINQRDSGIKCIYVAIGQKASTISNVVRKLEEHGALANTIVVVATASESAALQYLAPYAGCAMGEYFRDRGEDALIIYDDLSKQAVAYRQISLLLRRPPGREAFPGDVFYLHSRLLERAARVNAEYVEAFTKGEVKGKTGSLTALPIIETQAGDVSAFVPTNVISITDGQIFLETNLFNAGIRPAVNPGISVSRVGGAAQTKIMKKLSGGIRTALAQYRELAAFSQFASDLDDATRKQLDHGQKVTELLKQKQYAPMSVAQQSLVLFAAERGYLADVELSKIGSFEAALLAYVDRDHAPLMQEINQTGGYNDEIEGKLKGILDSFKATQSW

Consider 1,8,9-Anthracentriol [PC17], for which the “Residual ATPase Activity (%)” value in test [1] (setting [4]) is recorded as 70%. Besides, in test [1] (setting [5]), the “maximum amount of inhibition of ATPase activity” value is recorded as ~ 30%. Besides, the “Growth yield in limiting glucose (%)” value in test [2] (setting [6]) was determined as 69%.
Consider `Cc1cc(O)c(C(C)C)cc1O` [PC01, Dihydrothymoquinone], for which the “Residual ATPase Activity (%)” value in test [1] (setting [4]) is 60%. For the same compound, the “residual activity” value in test [1] (setting [7]) was ~ 60%. In test [1] (setting [5]), the “maximum amount of inhibition of ATPase activity” value is on record as ~ 40%. The “Growth yield in limiting glucose (%)” value in test [2] (setting [6]) worked out at 66%.
One may read the IC50 as the point on the concentration scale where inhibition reaches its midpoint. The low end stands for higher potency, the high end for lower potency. Take `Oc1ccc(O)cc1` [PC02, Hydroquinone]: in test [1], the IC50 is around 20 µM, the “Residual ATPase Activity (%)” value was determined as 20% and the “maximum amount of inhibition of ATPase activity” value is listed as ~ 80%. Moreover, the “Growth yield in limiting glucose (%)” value in test [2] worked out at 55%.
On to `Oc1cccc(O)c1` [PC03, Resorcinol], for which the “Residual ATPase Activity (%)” value in test [1] (setting [4]) came out at 80%. Further, the “residual activity” value in test [1] (setting [7]) is listed as ~ 80%. Besides, in test [1] (setting [5]), the “maximum amount of inhibition of ATPase activity” value is listed as ~ 20%. In addition, in test [2] (setting [6]), the “Growth yield in limiting glucose (%)” value was determined as 79%.
In the case of `Oc1ccccc1O` [PC04, Catechol], the “Residual ATPase Activity (%)” value in test [1] (setting [4]) came to 60%. For the same compound, the “residual activity” value in test [1] (setting [7]) is given as ~ 60%. For the same compound, in test [1] (setting [5]), the “maximum amount of inhibition of ATPase activity” value is reported as ~ 40%. The “Growth yield in limiting glucose (%)” value in test [2] (setting [6]) is listed as 57%.
On to `Oc1ccc(N=Cc2ccccc2O)cc1` [PC05, 2-[[(4-hydroxyphenyl)Imino]methyl]phenol], for which the IC50 in test [1] was around 5 µM. In addition, the “Residual ATPase Activity (%)” value in test [1] (setting [4]) amounted to 0%. Also, the “Growth yield in limiting glucose (%)” value in test [2] (setting [6]) amounted to 42%.
The matching figures for `Oc1cccc(N=Cc2ccccc2O)c1` [PC06, 2-[[(3-Hydroxyphenyl)imino]methyl]phenol]: around 5.25 µM, 15% and 51%.
As to `Oc1cccc(C=Nc2ccccc2O)c1` [PC07, 3-[[(2-Hydroxyphenyl)imino]methyl]phenol], the half-inhibitory concentration (IC50) in test [1] is around 9 µM. Also, the “Residual ATPase Activity (%)” value in test [1] (setting [4]) is listed as 15%.
`Oc1ccc(C=Nc2cccc(O)c2)cc1` [PC08, 4-[[(3-Hydroxyphenyl)imino]methyl]phenol] had a 50% inhibitory concentration (IC50) in test [1] of around 9 µM. Moreover, in test [1] (setting [4]), the “Residual ATPase Activity (%)” value turned out to be 0%.
For `Oc1ccccc1C=Nc1ccccc1O` [PC09, 2-[[(2-Hydroxyphenyl)imino]methyl]phenol], in that order: around 7 µM and 5%.
The matching figures for `Oc1cccc(C=Nc2cccc(O)c2)c1` [PC10, 3-[[(3-Hydroxyphenyl)imino]methyl]phenol]: around 2.25 µM and 0%.
Regarding `Oc1ccc(C=Nc2ccc(O)cc2)cc1` [PC11, 4-[[(4-Hydroxyphenyl)imino]methyl]phenol], the “Residual ATPase Activity (%)” value in test [1] (setting [4]) was determined as 80%. Moreover, the “residual activity” value in test [1] (setting [7]) is listed as ~ 80%.
In test [1], `O=[N+]([O-])c1cc(O)ccc1N=Cc1ccccc1O` [PC12, 2-[[(4-Hydroxy-2-nitrophenyl)imino]methyl]phenol] gave an IC50 of around 6 µM. Moreover, the “Residual ATPase Activity (%)” value in test [1] (setting [4]) is on record as 0%.
The matching figures for `O=[N+]([O-])c1ccc(N=Cc2ccccc2O)c(O)c1` [PC13, 2-[[(2-Hydroxy-4-nitrophenyl)imino]methyl]phenol]: around 5 µM and 0%.
In the case of `O=[N+]([O-])c1ccc(OP(=O)(Oc2ccc([N+](=O)[O-])cc2)Oc2ccc([N+](=O)[O-])cc2)cc1` [PC14, Tris(4-nitrophenyl)phosphate], the “Residual ATPase Activity (%)” value in test [1] (setting [4]) is listed as 55%. For the same compound, the “residual activity” value in test [1] (setting [7]) was ~ 55%. For the same compound, the “maximum amount of inhibition of ATPase activity” value in test [1] (setting [5]) was ~ 45%. Besides, in test [2] (setting [6]), the “Growth yield in limiting glucose (%)” value is given as 57%.
As for `O=[N+]([O-])c1ccc(OP(=O)(O)Oc2ccc([N+](=O)[O-])cc2)cc1` [PC15, Bis(4-nitrophenyl)phosphate], the “Residual ATPase Activity (%)” value in test [1] (setting [4]) was 60%. In addition, in test [1] (setting [5]), the “maximum amount of inhibition of ATPase activity” value is ~ 40%. For the same compound, the “Growth yield in limiting glucose (%)” value in test [2] (setting [6]) was 63%.
As to `O=C1c2cccc(O)c2C(=O)c2c(O)cccc21` [PC16, 1,8-Dihydroxy-9,10-anthraquinone], the “Residual ATPase Activity (%)” value in test [1] (setting [4]) came out at 78%. Also, the “residual activity” value in test [1] (setting [7]) was ~ 78%. For the same compound, in test [1] (setting [5]), the “maximum amount of inhibition of ATPase activity” value was ~ 22%. Further, in test [2] (setting [6]), the “Growth yield in limiting glucose (%)” value was 80%.
In the case of `Oc1ccc(/C=C/c2cc(O)cc(O)c2)cc1` [resveratrol], the “inhibition of E. coli ATP synthase” value in test [3] is recorded as ~ 40%.
